The values below come from PubChem BioAssay (NCI).

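96-well plates; 48 h exposure; 5 concentrations. Endpoints by linear interpolation between flanking doses. Not reached: highest tested concentration assigned. The concentration for full growth arrest is given as TGI.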

Holding throughout (experiment): inhibition of tumour cell growth, NCI panel, 48 h
Experiment [1] has as its system PC-3 prostate.
Experiment [2] concerns MDA-N.
For experiment [3], the system named is KM12 colon.
Experiment [4] relates to HCT-116 colon.
The test system of experiment [5] is A549 NSCLC.
The subject of experiment [6] is NCI/ADR-RES ovarian.
The test system of experiment [7] is HOP-92 NSCLC.
Experiment [8] deals with HOP-62 NSCLC.
In experiment [9] the test system is SN12C renal.
The test system of experiment [10] is CCRF-CEM leukemia.
Experiment [11] has as its system HCT-15 colon.

Regarding `Cc1c2ncccc2cc2oc3ccccc3c(=O)c12`, the TGI in [1], in experiment [2], in [3], in experiment [4], in [5] and in [6] was > 100 µM in each case. Also, the TGI in [7] is 92.7 µM; in [8], > 100 µM; in [9], > 100 µM; in experiment [10] it was > 100 µM; in experiment [11], > 100 µM.
Take `c1ccc2c3c(c(N4CCOCC4)nc2c1)CCCC3`: the TGI in [1], in experiment [2], in experiment [3], in [4], in experiment [5] and in experiment [6] was > 100 µM each time. For the same molecule, the TGI in experiment [7], in experiment [8], in [9], in [10] and in experiment [11] was > 100 µM throughout.
